Source: patent US9260483B2, “Triazacyclononane-based phosphinate ligand and its use for molecular imaging” (TECHNISCHE UNIVERSITÄT MÜNCHEN, priority 2011, dated 2016)
Like-named read-outs stand apart in the source and are kept apart here.

Assays:
αvβ3 integrin = biological target: T1, αvβ3 integrin (Homo sapiens, UniProt P05106+P06756); test: In vitro binding assay: displacement of 125I-echistatin on M21 human melanoma cells
T1 construct: endogenous in cells; host or cells: M21 human melanoma cells

[1] = M21 cells, 125I-echistatin, 2 h room temperature, read-out: IC50

T1 sequence (P06756 31-889 limits assumed): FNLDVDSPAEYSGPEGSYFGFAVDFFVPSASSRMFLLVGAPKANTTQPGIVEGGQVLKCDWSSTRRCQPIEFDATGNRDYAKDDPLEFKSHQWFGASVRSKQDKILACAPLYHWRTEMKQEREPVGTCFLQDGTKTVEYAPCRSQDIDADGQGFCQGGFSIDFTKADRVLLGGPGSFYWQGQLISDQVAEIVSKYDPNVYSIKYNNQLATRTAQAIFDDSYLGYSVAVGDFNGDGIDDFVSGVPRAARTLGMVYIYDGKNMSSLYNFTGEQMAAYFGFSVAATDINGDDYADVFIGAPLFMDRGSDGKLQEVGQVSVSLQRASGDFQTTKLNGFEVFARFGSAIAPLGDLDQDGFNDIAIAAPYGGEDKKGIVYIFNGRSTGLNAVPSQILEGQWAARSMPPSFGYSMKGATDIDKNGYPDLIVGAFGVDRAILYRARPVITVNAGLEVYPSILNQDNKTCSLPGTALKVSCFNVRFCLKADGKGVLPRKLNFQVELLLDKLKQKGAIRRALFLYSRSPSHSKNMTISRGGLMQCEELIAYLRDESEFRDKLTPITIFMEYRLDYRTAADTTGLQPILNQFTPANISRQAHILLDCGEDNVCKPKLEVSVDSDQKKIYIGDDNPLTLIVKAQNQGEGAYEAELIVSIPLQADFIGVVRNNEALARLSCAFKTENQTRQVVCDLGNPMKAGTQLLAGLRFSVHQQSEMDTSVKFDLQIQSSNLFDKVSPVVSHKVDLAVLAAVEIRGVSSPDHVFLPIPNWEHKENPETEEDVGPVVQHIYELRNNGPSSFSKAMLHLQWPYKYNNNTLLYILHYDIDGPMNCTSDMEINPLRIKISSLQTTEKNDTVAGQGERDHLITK
T1 sequence (P06756 891-1048 partner limits assumed): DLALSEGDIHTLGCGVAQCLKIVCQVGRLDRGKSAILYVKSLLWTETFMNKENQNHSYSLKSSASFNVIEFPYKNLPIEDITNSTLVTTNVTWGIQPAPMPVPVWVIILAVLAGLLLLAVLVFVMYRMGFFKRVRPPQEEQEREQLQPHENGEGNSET
T1 sequence (P05106 27-788): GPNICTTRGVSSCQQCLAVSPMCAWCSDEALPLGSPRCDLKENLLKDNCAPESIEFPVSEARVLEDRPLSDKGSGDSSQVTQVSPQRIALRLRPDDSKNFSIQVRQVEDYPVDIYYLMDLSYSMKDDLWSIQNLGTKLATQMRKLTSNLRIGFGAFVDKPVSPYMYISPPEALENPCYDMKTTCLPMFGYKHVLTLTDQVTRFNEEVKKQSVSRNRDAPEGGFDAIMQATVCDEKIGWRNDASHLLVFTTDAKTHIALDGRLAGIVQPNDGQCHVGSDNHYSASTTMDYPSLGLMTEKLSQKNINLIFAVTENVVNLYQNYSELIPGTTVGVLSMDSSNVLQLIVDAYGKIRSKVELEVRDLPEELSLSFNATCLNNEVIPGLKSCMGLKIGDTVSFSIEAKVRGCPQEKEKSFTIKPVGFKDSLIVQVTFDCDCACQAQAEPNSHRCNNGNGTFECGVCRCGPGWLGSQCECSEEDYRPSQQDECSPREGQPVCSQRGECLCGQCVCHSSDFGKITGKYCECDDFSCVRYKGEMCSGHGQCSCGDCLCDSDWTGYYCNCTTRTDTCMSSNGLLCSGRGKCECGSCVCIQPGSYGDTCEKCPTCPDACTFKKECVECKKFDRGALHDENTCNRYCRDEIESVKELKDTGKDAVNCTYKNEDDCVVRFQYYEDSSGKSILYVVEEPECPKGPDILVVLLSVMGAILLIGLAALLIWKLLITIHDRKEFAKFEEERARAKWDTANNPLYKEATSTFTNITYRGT

Row | Compound | logP | IC50 (αvβ3 integrin; IC50 (nM)) [nM] | other results
1 | 19F-galacto-RGD [reference compound] |  |  | IC50 (αvβ3 integrin; [1]): 319 nM; log IC50 (αvβ3 integrin; logarithmic IC50 with logarithmic error, M21 cells, 125I-echistatin, 2 h room temperature): −6.45 ± 0.157
2 | N=C(N)NCCC[C@@H]1NC(=O)[C@H](CCCCNC(=O)CCOCCOCCOCCOCCNC(=O)CCP(=O)(O)CN2CCN(CP(=O)(O)CCC(=O)NCCOCCOCCOCCOCCC(=O)NCCCC[C@@H]3NC(=O)[C@@H](Cc4ccccc4)NC(=O)[C@H](CC(=O)O)NC(=O)CNC(=O)[C@H](CCCNC(=N)N)NC3=O)CCN(CP(=O)(O)CCC(=O)NCCOCCOCCOCCOCCC(=O)NCCCC[C@@H]3NC(=O)[C@@H](Cc4ccccc4)NC(=O)[C@H](CC(=O)O)NC(=O)CNC(=O)[C@H](CCCNC(=N)N)NC3=O)CC2)NC(=O)[C@@H](Cc2ccccc2)NC(=O)[C@H](CC(=O)O)NC(=O)CNC1=O (single isomer, unassigned) [Ga-R3PEG4P9] | -3.9 ± 0.1 |  | 
3 | N=C(N)NCCC[C@@H]1NC(=O)[C@H](CCCCNC(=O)CCP(=O)(O)CN2CCN(CP(=O)(O)CCC(=O)O)CCN(CP(=O)(O)CCC(=O)O)CC2)NC(=O)[C@@H](Cc2ccccc2)NC(=O)[C@H](CC(=O)O)NC(=O)CNC1=O [Compound R1P9] |  | 2890 | IC50 (αvβ3 integrin; log IC50): 2950 nM
4 | N=C(N)NCCC[C@@H]1NC(=O)[C@H](CCCCNC(=O)CCP(=O)(O)CN2CCN(CP(=O)(O)CCC(=O)O)CCN(CP(=O)(O)CCC(=O)NCCCC[C@@H]3NC(=O)[C@@H](Cc4ccccc4)NC(=O)[C@H](CC(=O)O)NC(=O)CNC(=O)[C@H](CCCNC(=N)N)NC3=O)CC2)NC(=O)[C@@H](Cc2ccccc2)NC(=O)[C@H](CC(=O)O)NC(=O)CNC1=O [Compound R2P9] |  | 370 | 
5 | CCN=c1cc2oc3cc(NCC)c(C)cc3c(-c3ccccc3C(=O)NCCCCCCNC(=O)CCP(=O)(O)CN3CCN(CP(=O)(O)CCC(=O)NCCCCC4NC(=O)[C@@H](Cc5ccccc5)NC(=O)[C@H](CC(=O)O)NC(=O)CNC(=O)[C@H](CCCNC(=N)N)NC4=O)CCN(CP(=O)(O)CCC(=O)NCCCC[C@@H]4NC(=O)[C@@H](Cc5ccccc5)NC(=O)[C@H](CC(=O)O)NC(=O)CNC(=O)[C@H](CCCNC(=N)N)NC4=O)CC3)c-2cc1C (some centres unmarked) [Compound R2RhoP9] |  | 92 | 
6 | N=C(N)NCCC[C@@H]1NC(=O)[C@H](CCCCNC(=O)CC[C@H](NC(=O)CCP(=O)(O)CN2CCN(CP(=O)(O)CCC(=O)N[C@@H](CCC(=O)NCCCC[C@@H]3NC(=O)[C@@H](Cc4ccccc4)NC(=O)[C@H](CC(=O)O)NC(=O)CNC(=O)[C@H](CCCNC(=N)N)NC3=O)C(=O)O)CCN(CP(=O)(O)CCC(=O)N[C@@H](CCC(=O)NCCCC[C@@H]3NC(=O)[C@@H](Cc4ccccc4)NC(=O)[C@H](CC(=O)O)NC(=O)CNC(=O)[C@H](CCCNC(=N)N)NC3=O)C(=O)O)CC2)C(=O)O)NC(=O)[C@@H](Cc2ccccc2)NC(=O)[C@H](CC(=O)O)NC(=O)CNC1=O [Compound R3GlutP9] |  | 125 | 
7 | N=C(N)NCCC[C@@H]1NC(=O)[C@H](CCCCNC(=O)CCCCCNC(=O)CC[PH](=O)CN2CCN(CP(=O)(O)CCC(=O)NCCCCCC(=O)NCCCC[C@@H]3NC(=O)[C@H](Cc4ccccc4)NC(=O)[C@H](CC(=O)O)NC(=O)CNC(=O)[C@H](CCCNC(=N)N)NC3=O)CCN(CP(=O)(O)CCC(=O)NCCCCCC(=O)NCCCC[C@@H]3NC(=O)[C@H](Cc4ccccc4)NC(=O)[C@H](CC(=O)O)NC(=O)CNC(=O)[C@H](CCCNC(=N)N)NC3=O)CC2)NC(=O)[C@H](Cc2ccccc2)NC(=O)[C@H](CC(=O)O)NC(=O)CNC1=O (some centres unmarked) [Compound R3HexP9] |  | 85 | 
8 | N=C(N)NCCC[C@@H]1NC(=O)[C@H](CCCCNC(=O)CCOCCOCCOCCOCCOCCOCCOCCOCCNC(=O)CCP(=O)(O)CN2CCN(CP(=O)(O)CCC(=O)NCCOCCOCCOCCOCCOCCOCCOCCOCCC(=O)NCCCC[C@@H]3NC(=O)[C@@H](Cc4ccccc4)NC(=O)[C@H](CC(=O)O)NC(=O)CNC(=O)[C@H](CCCNC(=N)N)NC3=O)CCN(CP(=O)(O)CCC(=O)NCCOCCOCCOCCOCCOCCOCCOCCOCCC(=O)NCCCC[C@@H]3NC(=O)[C@@H](Cc4ccccc4)NC(=O)[C@H](CC(=O)O)NC(=O)CNC(=O)[C@H](CCCNC(=N)N)NC3=O)CC2)NC(=O)[C@@H](Cc2ccccc2)NC(=O)[C@H](CC(=O)O)NC(=O)CNC1=O [Compound R3PEG8P9] |  |  | IC50 (αvβ3 integrin; [1]): 50 nM
9 | N=C(N)NCCC[C@@H]1NC(=O)[C@H](CCCCNC(=O)CCP(=O)(O)CN2CCN(CP(=O)(O)CCC(=O)O)CCN(CP(=O)(O)CCC(=O)O)CC2)NC(=O)[C@@H](Cc2ccccc2)NC(=O)[C@H](CC(=O)O)NC(=O)CNC1=O [Ga-R1P9] | -3.91 ± 0.11 |  | 
10 | N=C(N)NCCC[C@@H]1NC(=O)[C@H](CCCCNC(=O)CCP(=O)(O)CN2CCN(CP(=O)(O)CCC(=O)O)CCN(CP(=O)(O)CCC(=O)NCCCC[C@@H]3NC(=O)[C@@H](Cc4ccccc4)NC(=O)[C@H](CC(=O)O)NC(=O)CNC(=O)[C@H](CCCNC(=N)N)NC3=O)CC2)NC(=O)[C@@H](Cc2ccccc2)NC(=O)[C@H](CC(=O)O)NC(=O)CNC1=O [Ga-R2P9] | -4.12 ± 0.06 |  | 
11 | CCN=c1cc2oc3cc(NCC)c(C)cc3c(-c3ccccc3C(=O)NCCCCCCNC(=O)CCP(=O)(O)CN3CCN(CP(=O)(O)CCC(=O)NCCCC[C@@H]4NC(=O)[C@@H](Cc5ccccc5)NC(=O)[C@H](CC(=O)O)NC(=O)CNC(=O)[C@H](CCCNC(=N)N)NC4=O)CCN(CP(=O)(O)CCC(=O)NCCCC[C@@H]4NC(=O)[C@@H](Cc5ccccc5)NC(=O)[C@H](CC(=O)O)NC(=O)CNC(=O)[C@H](CCCNC(=N)N)NC4=O)CC3)c-2cc1C [Ga-R2RhoP9] | -1.27 ± 0.04 |  | 
12 | N=C(N)NCCC[C@@H]1NC(=O)[C@H](CCCCNC(=O)CC[C@H](NC(=O)CCP(=O)(O)CN2CCN(CP(=O)(O)CCC(=O)N[C@@H](CCC(=O)NCCCC[C@@H]3NC(=O)[C@@H](Cc4ccccc4)NC(=O)[C@H](CC(=O)O)NC(=O)CNC(=O)[C@H](CCCNC(=N)N)NC3=O)C(=O)O)CCN(CP(=O)(O)CCC(=O)N[C@@H](CCC(=O)NCCCC[C@@H]3NC(=O)[C@@H](Cc4ccccc4)NC(=O)[C@H](CC(=O)O)NC(=O)CNC(=O)[C@H](CCCNC(=N)N)NC3=O)C(=O)O)CC2)C(=O)O)NC(=O)[C@@H](Cc2ccccc2)NC(=O)[C@H](CC(=O)O)NC(=O)CNC1=O [Ga-R3GlutP9] | -4.03 ± 0.12 |  | 
13 | N=C(N)NCCC[C@@H]1NC(=O)[C@H](CCCCNC(=O)CCCCCNC(=O)CCP(=O)(O)CN2CCN(CP(=O)(O)CCC(=O)NCCCCCC(=O)NCCCC[C@@H]3NC(=O)[C@@H](Cc4ccccc4)NC(=O)[C@H](CC(=O)O)NC(=O)CNC(=O)[C@H](CCCNC(=N)N)NC3=O)CCN(CP(=O)(O)CCC(=O)NCCCCCC(=O)NCCCC[C@@H]3NC(=O)[C@@H](Cc4ccccc4)NC(=O)[C@H](CC(=O)O)NC(=O)CNC(=O)[C@H](CCCNC(=N)N)NC3=O)CC2)NC(=O)[C@@H](Cc2ccccc2)NC(=O)[C@H](CC(=O)O)NC(=O)CNC1=O [Ga-R3HexP9] | -3.99 ± 0.13 |  | 
14 | Echistatin [reference compound] |  |  | log IC50 (αvβ3 integrin): −9.01 ± 0.033; IC50 (αvβ3 integrin; read-out: IC50): 0.98 nM
